Source: US6514997B2, “Antipicornaviral compounds and compositions, their pharmaceutical uses, and materials for their synthesis” (Agouron Pharmaceuticals, Inc., priority 1999, dated 2003)
Where two headings read alike, the source gives them in different places. Each block holds one compound with its values, some of them ahead of it.

Tests used:
H1-HeLa cells = assay: Cytotoxicity (CC50) in mock-infected H1-HeLa cells, XTT dye reduction; assay type: cell-based, human
Protocol: (§1) In this cell protection assay, the ability of compounds to protect cells against HRV infection was measured by the XTT dye reduction method, which is described in Weislow et al., J. Natl. Cancer Inst. […] H1-HeLa cells were infected with HRV-14 at a multiplicity of infection (m.o.i.) of 0.13 (virus particles/cell) or mock-infected with medium only. Infected or mock-infected cells were resuspended at 8×10^5 cells per mL, and incubated with appropriate concentrations of the compounds to be tested. Two days later, XTT/PMS was added to test plates and the amount of formazan produced was quantified spectrophotometrically at 450/650 nm. […] The therapeutic index (TI) was calculated by dividing the CC50 value by the EC50 value.
(§2) All strains of human rhinovirus (HRV) for use in this assay were purchased from American Type Culture Collection (ATCC), except for HRV serotype-14 (produced from the infectious cDNA clone constructed by Dr. Robert Rueckert, Institute for Molecular Virology, University of Wisconsin, Madison, Wis.). HRV stocks were propagated and viral assays were performed in H1-HeLa cells (ATCC). Cells were grown in minimal essential medium with 10% fetal bovine serum, available from Life Technologies (Gaithersburg, Md.).
(§3) Coxsackievirus types A-21 (CAV-21) and B3 (CVB3) were purchased from American Type Culture Collection (ATCC, Rockville, Md.). Virus stocks were propagated and antiviral assays were performed in H1-HeLa cells (ATCC). Cells were grown in minimal essential medium with 10% fetal bovine serum (Life Technologies, Gaithersburg, Md.). The ability of the compounds of this invention to protect cells against either CAV-21 or CVB3 infection was measured by the XTT dye reduction method. This method is described in Weislow et al., J. Natl. Cancer Inst. […] H1-HeLa cells were infected with CAV-21 or CVB3 at a multiplicity of infection (m.o.i.) of 0.025 or 0.075, respectively, or mock-infected with medium only. H1-HeLa cells were plated at 4×10^4 cells per well in a 96-well plate and incubated with appropriate concentrations of the test compound. One day (CVB3) or two days (CAV-21) later, XTT/PMS was added to test plates and the amount of formazan produced was quantified spectrophotometrically at 450/650 nm. […] The therapeutic index (TI) was calculated by dividing the CC50 by the EC50.

HRV-14 = assay: Antirhinoviral H1-HeLa cell culture assay (XTT cell protection, EC50), HRV-14; assay type: cell-based, human rhinovirus (HRV) serotype-14 in H1-HeLa cells
Protocol: (§4) Antirhinoviral H1-HeLa Cell Culture Assay:
as §1, §2

[1] = tested on: strains of human rhinovirus (HRV); assay: Antirhinoviral H1-HeLa cell culture assay (XTT cell protection, EC50), other HRV strains; assay type: cell-based, human rhinovirus in H1-HeLa cells; conditions: read-out: EC50
Protocol: as §4
In this cell protection assay, the ability of compounds to protect cells against HRV infection was measured by the XTT dye reduction method, which is described in Weislow et al., J. Natl. Cancer Inst. (1989), vol. 81, 577-586. H1-HeLa cells were infected with HRV-14 at a multiplicity of infection (m.o.i.) of 0.13 (virus particles/cell) or mock-infected with medium only. Infected or mock-infected cells were resuspended at 8×10^5 cells per mL, and incubated with appropriate concentrations of the compounds to be tested. Two days later, XTT/PMS was added to test plates and the amount of formazan produced was quantified spectrophotometrically at 450/650 nm. […] The therapeutic index (TI) was calculated by dividing the CC50 value by the EC50 value.
as §2

[2] = target: T1, Recombinant rhinovirus 3C protease, serotype 14 (Human rhinovirus 14, UniProt P03303); assay: Inhibition of rhinovirus 3C protease (FRET assay, kobs/[I]), serotype 14; assay type: biochemical; conditions: for kinact/KI: pH 7.6, read-out: kobs/[I] (3C protease inhibition activity)
T1 construct: Recombinant rhinovirus 3C proteases; made in house
T1 sequence (P03303 1538-1719): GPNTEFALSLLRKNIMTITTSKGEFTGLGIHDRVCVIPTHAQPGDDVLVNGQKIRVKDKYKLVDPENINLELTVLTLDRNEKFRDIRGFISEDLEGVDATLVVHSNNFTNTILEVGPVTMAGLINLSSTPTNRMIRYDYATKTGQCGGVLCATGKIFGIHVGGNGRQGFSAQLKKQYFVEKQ
Protocol: Inhibition of Rhinovirus 3C Protease:
Stock solutions (50 mM, in DMSO) of various compounds were prepared; dilutions were in the same solvent. Recombinant rhinovirus 3C proteases (see Birch et al., “Purification of recombinant human rhinovirus 14 3C protease expressed in Escherichia coli,” Protein Expr. Pur. (1995), vol. 6(5), 609-618) from serotypes 14, 16, and 2 were prepared by the following standard chromatographic procedures: (1) ion exchange using Q Sepharose Fast Flow from Pharmacia; (2) affinity chromatography using Affi-Gel Blue from Biorad; and (3) sizing using Sephadex G-100 from Pharmacia. Each assay sample contained 2% DMSO, 50 mM tris pH 7.6, 1 mM EDTA, a test compound at the indicated concentration, approximately 1 μM substrate, and 50-100 nM protease. The kobs/I values were obtained from reactions initiated by addition of enzyme rather than substrate. RVP activity was measured in the fluorescence resonance energy transfer assay. The substrate was (N-terminal) DABCYL-([…]-EDANS. In the uncleaved peptide, the EDANS fluorescence was quenched by the proximal DABCYL moiety. When the peptide was cleaved, the quenching was relieved, and activity was measured as an increase in fluorescence signal. The tabulated data in the column designated kobs/[I] were measured from progress curves in enzyme start experiments.

[3] = Cytotoxicity (CC50) in mock-infected H1-HeLa cells, XTT dye reduction; assay type: cell-based, human; conditions: human, H1-HeLa cells, mock-infected; line of HRV-14
Protocol: as §1, §2, §3

SMILES: C#CC[C@@H](C(=O)N[C@H](/C=C/C(=O)OCC(C)(C)C)C[C@@H]1CCNC1=O)n1cccc(NC(=O)c2cc(C)on2)c1=O (relative stereo) [Compound 32, trans-(2′S,3″″S,4S)-4-(2′-{3″-[(5′″-Methylisoxazole-3′″-carbonyl)amino]-2″-oxo-2″H-pyridin-1″-yl}-pent-4′-ynoylamino)-5-(2″″-oxopyrrolidin-3″″-yl)pent-2-enoic acid 2,2-Dimethylpropyl Ester]
CC50 (H1-HeLa cells; line of HRV-1A): > 10000 nM
CC50 (H1-HeLa cells; line of HRV-2): > 10000 nM
CC50 (H1-HeLa cells; line of HRV-3): > 10000 nM
CC50 (H1-HeLa cells; line of HRV-9): > 10000 nM
CC50 (H1-HeLa cells; line of HRV-10): > 10000 nM
CC50 (H1-HeLa cells; line of HRV-14): > 10000 nM
CC50 (H1-HeLa cells; line of HRV-16): > 10000 nM
CC50 (H1-HeLa cells; line of HRV-25): > 10000 nM
CC50 (H1-HeLa cells; line of HRV-39): > 10000 nM
CC50 (H1-HeLa cells; line of HRV-87): > 10000 nM
EC50 (HRV-14; HRV-14, read-out: EC50): 126 nM
EC50 ([1]; HRV-1A): 179 nM
EC50 ([1]; HRV-2): 105 nM
EC50 ([1]; HRV-3): 59 nM
EC50 ([1]; HRV-9): 500 nM
EC50 ([1]; HRV-10): 156 nM
EC50 ([1]; HRV-16): 184 nM
EC50 ([1]; HRV-25): 547 nM
EC50 ([1]; HRV-39): 410 nM
EC50 ([1]; HRV-87): 33 nM
kobs/[I] (3C protease inhibition activity) ([2]; HRV-14): 127,500 M^−1s^−1

SMILES: CCC(C(=O)N[C@H](/C=C/C(=O)OCC(C)(C)C)C[C@@H]1CCNC1=O)n1cccc(NC(=O)c2cc(C)on2)c1=O (relative stereo) [Compound 42, trans-(2′S,3′″″S,4S)-4-[2′-(3″-{[1′″-(5″″-Methylisoxazol-3″″-yl)methanoyl]amino}-2′″-oxo-2′″H-pyridin-1′″-yl)butanoylamino]-5-(2′″″-oxopyrrolidin-3′″″-yl)pent-2-enoic Acid 2,2-Dimethylpropyl Ester]
CC50 (H1-HeLa cells; line of HRV-2): > 10000 nM
CC50 (H1-HeLa cells; line of HRV-3): > 10000 nM
CC50 (H1-HeLa cells; line of HRV-9): > 10000 nM
CC50 (H1-HeLa cells; line of HRV-14): > 10000 nM
CC50 (H1-HeLa cells; line of HRV-16): > 10000 nM
CC50 (H1-HeLa cells; line of HRV-25): > 10000 nM
CC50 (H1-HeLa cells; line of HRV-39): > 10000 nM
EC50 (HRV-14; HRV-14, read-out: EC50): 168 nM
EC50 ([1]; HRV-2): 161 nM
EC50 ([1]; HRV-3): 152 nM
EC50 ([1]; HRV-9): 521 nM
EC50 ([1]; HRV-16): 402 nM
EC50 ([1]; HRV-25): 611 nM
EC50 ([1]; HRV-39): 158 nM
kobs/[I] (3C protease inhibition activity) ([2]; HRV-14): 38,200 M^−1s^−1

SMILES: CCOC(=O)/C=C/[C@H](C[C@@H]1CCNC1=O)NC(=O)[C@@H](Cc1ccccc1)n1ccc2cc[nH]c2c1=O [Compound 4]
kinact/KI ([2]; HRV-14): 574 M⁻¹ s⁻¹

SMILES: CCOC(=O)/C=C/[C@H](CCC(N)=O)NC(=O)[C@H](Cc1ccc(F)cc1)n1cccc(NC(=O)C(F)(F)F)c1=O [Compound 24, trans-(2′S,4S)-6-Carbamoyl-4-{3′-(4″-fluorophenyl)-2′-[2′″-oxo-3′″-(2″″,2″″,2″″-trifluoroacetylamino)-2′″H-pyridin-1′″-yl]propionylamino}hex-2-enoic Acid Ethyl Ester]
kinact/KI ([2]; HRV-14): 8800 M⁻¹ s⁻¹

SMILES: Cc1cc(C(=O)Nc2cccn([C@@H](Cc3ccc(F)c(F)c3)C(=O)N[C@H](/C=C/C(=O)O)C[C@@H]3CCNC3=O)c2=O)no1 [Compound 51, trans-(2′S,3″″″S,4S)-4-[3′-(3″,4″-Difluorophenyl)-2′-(3′″-{[1″″-(5′″″-methylisoxazol-3′″″-yl)methanoyl]amino}-2″″-oxo-2″″H-pyridin-1″″-yl)propanoylamino]-5-(2″″″-oxopyrrolidin-3″″″-yl)pent-2-enoic Acid]
CC50 (H1-HeLa cells; line of HRV-9): > 10000 nM
CC50 (H1-HeLa cells; line of HRV-16): > 10000 nM
CC50 (H1-HeLa cells; line of HRV-25): > 10000 nM
CC50 at 2 days [3]: > 10000 nM
EC50 (HRV-14; Rhinovirus B, HRV14, H1-HeLa): > 10000 nM
EC50 ([1]; Human rhinovirus sp., HRV9, H1-HeLa, HRV-9): > 1000 nM
EC50 ([1]; Human rhinovirus sp., HRV16, H1-HeLa, HRV-16): > 10000 nM
EC50 ([1]; Human rhinovirus sp., HRV25, H1-HeLa, HRV-25): > 10000 nM

SMILES: Cc1cc(CCCCCCCOc2ccc(C3=NCCO3)cc2)on1 [WIN 51711, reference compound]
CC50 (H1-HeLa cells; HRV-14): > 60000 nM
EC50 (HRV-14; HRV-14, read-out: EC50): 780 nM

SMILES: Cc1cc(CCCCCCCOc2ccc(C3=N[C@@H](C)CO3)cc2)on1 [WIN 52084, reference compound]
CC50 (H1-HeLa cells; HRV-14): > 10000 nM
EC50 (HRV-14; HRV-14, read-out: EC50): 70 nM

The next lines start with results.

EC50 (HRV-14; Rhinovirus B, HRV14, H1-HeLa, HRV-14, read-out: EC50): 16800 nM
SMILES: Cc1cc(C(=O)Nc2ccc3n(c2=O)[C@H](C(=O)N[C@H](/C=C2\CCOC2=O)C[C@@H]2CCNC2=O)CC3)no1 [Compound 38, trans-(2″S,3S,3′″S)-6-[(5′-Methylisoxazole-3′-carbonyl)amino]-5-oxo-1,2,3,5-tetrahydroindolizine-3-carboxylic Acid [2″-(2′″-oxodihydrofuran-3′″-ylidene)-1″-(2″″-oxopyrrolidin-3″″-ylmethyl)ethyl]amide]
CC50 at 2 days [3]: > 100000 nM

kinact/KI ([2]; HRV-14): 673 M⁻¹ s⁻¹
SMILES: CCOC(=O)/C=C/[C@H](C[C@@H]1CCNC1=O)NC(=O)[C@H](Cc1ccccc1)N1CCc2c(C)c[nH]c2C1=O [Compound 45, 4S-[2S-(3-Methyl-7-oxo-1,4,5,7-tetrahydro-pyrrolo[2,3-c]pyridin-6-yl)3-phenyl-propionylamino]-5-(2-oxo-pyrrolidin-3-yl)pent-2(trans)-enoic acid ethyl ester]

kinact/KI ([2]; HRV-14 3C protease): 15000 M⁻¹ s⁻¹
SMILES: CC[C@@H](C(=O)N[C@H](/C=C/C(=O)OC1CCCCCC1)C[C@@H]1CCNC1=O)n1cccc(NC(=O)c2cc(C)on2)c1=O [Compound 61, trans-(2′S,3′″″S,4S)-4-[2′-(3″-{[1′″-(5″″-Methylisoxazol-3″″-yl)methanoyl]amino}-2′″oxo-2′″H-pyridin-1′″-yl)butanoylamino]-5-(2′″″-oxopyrrolidin-3′″″-yl)pent-2-enoic Acid Cycloheptyl Ester]

kinact/KI ([2]; HRV-14 3C protease): 39500 M⁻¹ s⁻¹
SMILES: CCOC(=O)/C=C/[C@H](C[C@@H]1CCNC1=O)NC(=O)[C@H](CC)n1cc(C(F)(F)F)cc(NC(=O)c2cc(C)on2)c1=O [Compound 68, trans-(2′S,3″″S,4S)-4-[2′-({[1″-(5′″-Methylisoxazol-3′″-yl)methanoyl]amino}-oxotrifluoromethyl-2″H-pyridin-1″-yl)butanoylamino]-5-(2″″-oxopyrrolidin-3″″-yl)pent-2-enoic Acid Ethyl Ester]
